In US20220024882A1, “NOVEL TUMOR ANTIGEN BINDING AGENTS AND USES THEREOF” (ITM Isotopen Technologien München AG, priority 2018, published 2022):

Columns and labels:
[1] = tested on: PC-3 PIP/flu tumor-bearing mice; experiment: Biodistribution study in PC-3 PIP/flu tumor-bearing mice; assay type: in vivo, athymic nude Balb/c mice; conditions: for Blood / Bone / Heart / Intestines / Kidneys / Liver / Lung / Muscle / Salivary glands / Spleen / Stomach / Tumor-to-blood / Tumor-to-kidney / Tumor-to-liver: PC-3 PIP/flu tumor-bearing mice; for PC-3 flu Tumor: PSMA-negative tumor xenograft; for PC-3 flu Tumor / PC-3 PIP Tumor: mice; for PC-3 PIP Tumor: PSMA-positive tumor xenograft
Procedure: In vivo experiments were approved by the local veterinarian department and conducted in accordance with the Swiss law of animal protection. Mice were obtained from Charles River Laboratories, Sulzfeld, Germany, at the age of 5-6 weeks. Female, athymic nude Balb/c mice were subcutaneously inoculated with PSMA-positive PC-3 PIP cells (6×10^6 cells in 100 μL Hank's balanced salt solution (HBSS) with Ca^2+/Mg^2+) on the right shoulder and with PSMA-negative PC-3 flu cells (5×10^6 cells in 100 μL HBSS Ca^2+/Mg^2+) on the left shoulder. Two weeks later, the tumors reached a size of about 80-300 mm^3 suitable for the performance of the biodistribution studies.
Biodistribution studies were performed 12-15 days after PC-3 PIP/flu tumor cell inoculation. […] The radioligands were injected in a lateral tail vein in a volume of 100-200 μL. Mice were euthanized at different time points after injection (p.i.) of the radioligands. Selected tissues and organs were collected, weighed and measured using a γ-counter. The results were decay-corrected and listed as a percentage of the injected activity per gram of tissue mass (% IA/g) (Table 3 and 4).
Mice were obtained from Charles River Laboratories, Sulzfeld, Germany, at the age of 5-6 weeks. Female, athymic nude BALB/c mice were subcutaneously inoculated with PSMA-positive PC-3 PIP cells (6×10^6 cells in 100 μL Hank's balanced salt solution (HBSS)) on the right shoulder and with PSMA-negative PC-3 flu cells (5×10^6 cells in 100 μL HBSS) on the left shoulder. Two weeks later, the tumors reached a size of about 80-300 mm^3 suitable for the performance of the biodistribution and imaging studies.
Biodistribution studies were performed 12-15 days after PC-3 PIP/flu tumor cell inoculation. ^177Lu-Ibu-sPSMA was diluted in 0.9% NaCl containing 0.05% bovine serum albumin (BSA) to prevent adhesion to the vial and syringe material. The radioligand was injected in a lateral tail vein in a volume of 100 μL. Mice were euthanized at different time points after injection (p.i.) of the radioligand. Selected tissues and organs were collected, weighed and measured using a γ-counter. The results were decay-corrected and listed as a percentage of the injected activity per gram of tissue mass (% IA/g) (Table 6, FIG. 18).

Radiolytic stability = assay type: physicochemical; conditions: 250 MBq/500 μL saline, room temperature, with or without L-ascorbic acid
Procedure: Radiolytic stability over time was assessed for Ibu-sPSMA in three independent experiments. For this purpose, Ibu-sPSMA was labeled with ^177Lu in a volume of 120 μL at a specific activity of 50 MBq/nmol with or without the addition of L-ascorbic acid (3 mg). After quality control using HPLC (t=0, radiochemical purity ≥98%), the labeling solutions were diluted with saline to 250 MBq/500 μL and incubated at room temperature. The radioligand's integrity was determined by HPLC after 1 h, 4 h and 24 h incubation time as previously reported (Siwowska et al., Mol. Pharmaceutical 2017, 14, (2), 523-532). The HPLC chromatograms were analyzed by integration of the peaks representing the radiolabeled product, the released ^177Lu as well as degradation products of unknown structure (FIG. 15). A quantitative assessment was performed by expressing the peak area of the intact product as percentage of the sum of integrated peak areas of the entire chromatogram.

Compound: CC(C)Cc1ccc(C(C)C(=O)NCC[C@H](NC(=O)CN2CCN(CC(=O)O)CCN(CC(=O)O)CCN(CC(=O)O)CC2)C(=O)NCC2CCC(C(=O)N[C@@H](Cc3ccc4ccccc4c3)C(=O)NCCCC[C@H](NC(=O)N[C@@H](CCC(=O)O)C(=O)O)C(=O)O)CC2)cc1 (some centres unmarked) [^177Lu-Ibu-sPSMA, metal not drawn]
- Blood ([1]; 1 h p.i.): 29±4 % IA/g
- Bone ([1]; 1 h p.i.): 3.3 ± 0.4 % IA/g
- Heart ([1]; 1 h p.i.): 9.3 ± 1.5 % IA/g
- Intestines ([1]; 1 h p.i.): 2.9 ± 0.3 % IA/g
- Kidneys ([1]; 1 h p.i.): 114±15 % IA/g
- Liver ([1]; 1 h p.i.): 17±4 % IA/g
- Lung ([1]; 1 h p.i.): 17 ± 3 % IA/g
- Muscle ([1]; 1 h p.i.): 3.1 ± 0.7 % IA/g
- Salivary glands ([1]; 1 h p.i.): 6.6 ± 0.5 % IA/g
- Spleen ([1]; 1 h p.i.): 5.8 ± 1.2 % IA/g
- Stomach ([1]; 1 h p.i.): 2.6 ± 0.5 % IA/g
- Tumor-to-blood ([1]; 1 h p.i.): 2.2 ± 0.1
- Tumor-to-kidney ([1]; 1 h p.i.): 0.56±0.09
- Tumor-to-liver ([1]; 1 h p.i.): 3.7 ± 0.5
- PC-3 flu Tumor ([1]; 1 h p.i.): 5.1 ± 0.7 % IA/g
- PC-3 PIP Tumor ([1]; 1 h p.i.): 63±8 % IA/g
- Blood ([1]; 4 h p.i.): 7.2 ± 0.7 % IA/g
- Bone ([1]; 4 h p.i.): 1.1 ± 0.2 % IA/g
- Heart ([1]; 4 h p.i.): 2.4 ± 0.2 % IA/g
- Intestines ([1]; 4 h p.i.): 1.1 ± 0.2 % IA/g
- Kidneys ([1]; 4 h p.i.): 28 ± 2 % IA/g
- Liver ([1]; 4 h p.i.): 7.2±0.5 % IA/g
- Lung ([1]; 4 h p.i.): 4.9 ± 0.7 % IA/g
- Muscle ([1]; 4 h p.i.): 0.84 ± 0.14 % IA/g
- Salivary glands ([1]; 4 h p.i.): 1.9 ± 0.2 % IA/g
- Spleen ([1]; 4 h p.i.): 2.1 ± 0.3 % IA/g
- Stomach ([1]; 4 h p.i.): 1.3 ± 0.9 % IA/g
- Tumor-to-blood ([1]; 4 h p.i.): 14 ± 3
- Tumor-to-kidney ([1]; 4 h p.i.): 3.6 ± 0.2
- Tumor-to-liver ([1]; 4 h p.i.): 14 ± 2
- PC-3 flu Tumor ([1]; 4 h p.i.): 2.0 ± 0.3 % IA/g
- PC-3 PIP Tumor ([1]; 4 h p.i.): 99 ± 7 % IA/g
- Blood ([1]; 24 h p.i.): 0.76 ± 0.07 % IA/g
- Bone ([1]; 24 h p.i.): 0.27 ± 0.04 % IA/g
- Heart ([1]; 24 h p.i.): 0.39 ± 0.04 % IA/g
- Intestines ([1]; 24 h p.i.): 0.31 ± 0.07 % IA/g
- Kidneys ([1]; 24 h p.i.): 10 ± 2 % IA/g
- Liver ([1]; 24 h p.i.): 0.81 ± 0.09 % IA/g
- Lung ([1]; 24 h p.i.): 0.79 ± 0.07 % IA/g
- Muscle ([1]; 24 h p.i.): 0.14 ± 0.02 % IA/g
- Salivary glands ([1]; 24 h p.i.): 0.37 ± 0.05 % IA/g
- Spleen ([1]; 24 h p.i.): 0.72 ± 0.15 % IA/g
- Stomach ([1]; 24 h p.i.): 0.50 ± 0.19 % IA/g
- Tumor-to-blood ([1]; 24 h p.i.): 173 ± 18
- Tumor-to-kidney ([1]; 24 h p.i.): 13 ± 2
- Tumor-to-liver ([1]; 24 h p.i.): 163 ± 16
- PC-3 flu Tumor ([1]; 24 h p.i.): 0.66 ± 0.07 % IA/g
- PC-3 PIP Tumor ([1]; 24 h p.i.): 132±15 % IA/g
- Blood ([1]; 96 h p.i.): 0.27 ± 0.02 % IA/g
- Bone ([1]; 96 h p.i.): 0.08 ± 0.01 % IA/g
- Heart ([1]; 96 h p.i.): 0.12 ± 0.01 % IA/g
- Intestines ([1]; 96 h p.i.): 0.13 ± 0.03 % IA/g
- Kidneys ([1]; 96 h p.i.): 2.3 ± 0.3 % IA/g
- Liver ([1]; 96 h p.i.): 0.22 ± 0.02 % IA/g
- Lung ([1]; 96 h p.i.): 0.25 ± 0.03 % IA/g
- Muscle ([1]; 96 h p.i.): 0.04 ± 0.02 % IA/g
- Salivary glands ([1]; 96 h p.i.): 0.11 ± 0.02 % IA/g
- Spleen ([1]; 96 h p.i.): 0.22 ± 0.03 % IA/g
- Stomach ([1]; 96 h p.i.): 0.73 ± 0.82 % IA/g
- Tumor-to-blood ([1]; 96 h p.i.): 210 ± 35
- Tumor-to-kidney ([1]; 96 h p.i.): 25 ± 2
- Tumor-to-liver ([1]; 96 h p.i.): 263 ± 42
- PC-3 flu Tumor ([1]; 96 h p.i.): 0.15 ± 0.02 % IA/g
- PC-3 PIP Tumor ([1]; 96 h p.i.): 57±9 % IA/g
- radiolytic stability (percentage of intact radioligand up to 24 h) (Radiolytic stability): significantly more stable than ^177Lu-PSMA-617 and all other ibuprofen-derivatized PSMA radioligands
